{"source": "ChEMBL document CHEMBL1144052", "about": "“Cytotoxic 3,4-secoapotirucallanes from Aaglaia argentea bark” (J Nat Prod, 1999)", "note": "Active and inactive are the calls of the source. The rule behind the calls is not given here.", "data": [{"system": "KB", "test": "Cytotoxicity against human KB cells", "format": "functional, cell-based", "units": {"IC50": "µg/mL"}, "values": [{"compound": "C/C=C(/C)[C@@H](O)C(=O)O[C@@H]1C[C@H](C(C)(C)O)[C@](C)(CCC(=O)O)[C@H]2[C@H](OC(=O)[C@H](O)/C(C)=C/C)C[C@]3(C)C(=CC[C@H]3[C@H]3CO[C@H](C=C(C)C)C3)[C@@]21C", "Activity": "inactive"}, {"compound": "C/C=C(\\C)[C@@H](O)C(=O)O[C@@H]1C[C@H](C(C)(C)O)[C@](C)(CCC(=O)O)[C@H]2CC[C@]3(C)C(=CC[C@H]3[C@H]3CO[C@H](C=C(C)C)C3)[C@@]21C", "Activity": "inactive"}, {"compound": "C/C=C(\\C)[C@@H](O)C(=O)O[C@@H]1C[C@H](C(C)(C)O)[C@](C)(CCC(=O)O)[C@H]2[C@H](OC(=O)[C@H](O)C(C)C)C[C@]3(C)C(=CC[C@H]3[C@H]3CO[C@H](C=C(C)C)C3)[C@@]21C", "Activity": "inactive"}, {"compound": "C/C=C(\\C)[C@@H](O)C(=O)O[C@@H]1C[C@H](C(C)(C)O)[C@](C)(CCC(=O)O)[C@H]2[C@H](OC(=O)[C@H](O)[C@H](C)CC)C[C@]3(C)C(=CC[C@H]3[C@H]3CO[C@H](C=C(C)C)C3)[C@@]21C", "Activity": "inactive"}, {"compound": "CC(C)=C[C@@H]1C[C@@H]([C@@H]2CC=C3[C@@]4(C)[C@H](CC[C@]32C)[C@@](C)(CCC(=O)O)[C@@H](C(C)(C)O)C[C@H]4OC(=O)[C@H](O)C(C)C)CO1", "Activity": "inactive"}, {"compound": "CC[C@@H](C)[C@@H](O)C(=O)O[C@@H]1C[C@H](C(C)(C)O)[C@](C)(CCC(=O)O)[C@H]2CC[C@]3(C)C(=CC[C@H]3[C@H]3CO[C@H](C=C(C)C)C3)[C@@]21C", "Activity": "inactive"}, {"compound": "CC[C@@H](C)[C@@H](O)C(=O)O[C@@H]1C[C@]2(C)C(=CC[C@H]2[C@H]2CO[C@H](C=C(C)C)C2)[C@@]2(C)[C@H]1[C@@](C)(CCC(=O)O)[C@@H](C(C)(C)O)C[C@H]2OC(=O)[C@H](O)C(C)C", "Activity": "inactive"}, {"compound": "CC[C@@H](C)[C@@H](O)C(=O)O[C@@H]1C[C@]2(C)C(=CC[C@H]2[C@H]2CO[C@H](C=C(C)C)C2)[C@@]2(C)[C@H]1[C@@](C)(CCC(=O)O)[C@@H](C(C)(C)O)C[C@H]2OC(=O)[C@H](O)[C@H](C)CC", "Activity": "inactive"}, {"compound": "CC[C@@H](C)[C@@H](O)C(=O)O[C@@H]1C[C@H](C(C)(C)O)[C@](C)(CCC(=O)OC)[C@H]2CC[C@]3(C)C(=CC[C@H]3[C@H]3CO[C@H](C=C(C)C)C3)[C@@]21C", "note": "[ARGENTINIC ACID A METHYL ESTER]", "IC50": 2}, {"compound": "COC(=O)CC[C@@]1(C)[C@@H](C(C)(C)O)C[C@@H](OC(=O)[C@H](O)C(C)C)[C@@]2(C)C3=CC[C@@H]([C@H]4CO[C@H](C=C(C)C)C4)[C@]3(C)CC[C@H]12", "note": "[ARGENTINIC ACID B METHYL ESTER]", "IC50": 2}, {"compound": "C/C=C(\\C)[C@@H](O)C(=O)O[C@@H]1C[C@H](C(C)(C)O)[C@](C)(CCC(=O)OC)[C@H]2CC[C@]3(C)C(=CC[C@H]3[C@H]3CO[C@H](C=C(C)C)C3)[C@@]21C", "note": "[ARGENTINIC ACID C METHYL ESTER]", "IC50": 2}, {"compound": "C/C=C(\\C)[C@@H](O)C(=O)O[C@@H]1C[C@H](C(C)(C)O)[C@](C)(CCC(=O)OC)[C@H]2[C@H](OC(=O)[C@H](O)[C@H](C)CC)C[C@]3(C)C(=CC[C@H]3[C@H]3CO[C@H](C=C(C)C)C3)[C@@]21C", "note": "[ARGENTINIC ACID D METHYL ESTER]", "IC50": 1}, {"compound": "C/C=C(\\C)[C@@H](O)C(=O)O[C@@H]1C[C@H](C(C)(C)O)[C@](C)(CCC(=O)OC)[C@H]2[C@H](OC(=O)[C@H](O)C(C)C)C[C@]3(C)C(=CC[C@H]3[C@H]3CO[C@H](C=C(C)C)C3)[C@@]21C", "note": "[ARGENTINIC ACID E METHYL ESTER]", "IC50": 3.5}, {"compound": "CC[C@@H](C)[C@@H](O)C(=O)O[C@@H]1C[C@]2(C)C(=CC[C@H]2[C@H]2CO[C@H](C=C(C)C)C2)[C@@]2(C)[C@H]1[C@@](C)(CCC(=O)OC)[C@@H](C(C)(C)O)C[C@H]2OC(=O)[C@H](O)C(C)C", "note": "[ARGENTINIC ACID F METHYL ESTER]", "IC50": 2}, {"compound": "CC[C@@H](C)[C@@H](O)C(=O)O[C@@H]1C[C@]2(C)C(=CC[C@H]2[C@H]2CO[C@H](C=C(C)C)C2)[C@@]2(C)[C@H]1[C@@](C)(CCC(=O)OC)[C@@H](C(C)(C)O)C[C@H]2OC(=O)[C@H](O)[C@H](C)CC", "note": "[ARGENTINIC ACID G METHYL ESTER]", "IC50": 2.5}, {"compound": "C/C=C(/C)[C@@H](O)C(=O)O[C@@H]1C[C@H](C(C)(C)O)[C@](C)(CCC(=O)OC)[C@H]2[C@H](OC(=O)[C@H](O)/C(C)=C/C)C[C@]3(C)C(=CC[C@H]3[C@H]3CO[C@H](C=C(C)C)C3)[C@@]21C", "note": "[ARGENTINIC ACID H METHYL ESTER]", "IC50": 2}]}]}
